The target in the experiment is T1, microsomal prostaglandin E2 synthase-1 (mPGES-1) (Homo sapiens, UniProt O14684).
T1 sequence (O14684 1-152): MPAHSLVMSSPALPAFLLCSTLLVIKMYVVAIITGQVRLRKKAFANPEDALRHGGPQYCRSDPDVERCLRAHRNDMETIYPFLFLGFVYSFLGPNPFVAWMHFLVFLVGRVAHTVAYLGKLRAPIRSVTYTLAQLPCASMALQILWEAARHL
The experiment can be described thus: cell-free mPGES-1 activity assay in A549 microsomes, […] inhibition at […]. The class given is cell-based. To be noted: A549, read-out: % inhibition at 10 μM.

On to `CC(C)c1ccc2c(c1)c(SC(C)(C)C)c(CC(C)(C)C(=O)O)n2Cc1ccc(Cl)cc1` [MK-886, 3-[1-(4-chlorobenzyl)-3-t-butylthio-5-isopropylindol-2-yl]-2,2-dimethylpropanoic acid], for which the inhibition (in general, the change of the read-out against control, counted positive when it falls) at 10 µM turned out to be 74.5 ± 1.5%.

The record behind these values is article PMC3523389 (The Journal of pharmacology and experimental therapeutics, 2012).
